Experimental findings from patent publication US6380218B1, “Nicotinamide derivatives” (Pfizer Inc, priority 1997, dated 2002) are described below.

As usually defined, the melting point is the temperature of the solid-liquid transition. `O=C(O)c1cc2cc(CNC(=O)c3cccnc3Oc3ccc(F)cc3)ccc2[nH]1` [Example 165, 5-({[2-(4-Fluoro-phenoxy)-pyridine-3-carbonyl]-amino}-methyl)-1H-indole-2-carboxylic acid]: the melting point lay in the range of 236 to 238 °C. On to `CCCCNC(=O)c1cccnc1Oc1cccnc1` [Example 174, N-Butyl-2-(pyridin-3-yloxy)-nicotinamide], for which the melting point fell in the range of 55 to 56 °C. As for `CCCCCNC(=O)c1cccnc1Oc1cccnc1` [Example 175, N-Pentyl-2-(pyridin-3-yloxy)-nicotinamide], the figure is 61 to 62 °C. Under `CC[C@H](C)NC(=O)c1cccnc1Oc1cccnc1` [Example 176, (S)-N-sec-Butyl-2-(pyridin-3-yloxy)-nicotinamide] stands 64 to 65 °C; under `CC[C@@H](C)NC(=O)c1cccnc1Oc1cccnc1` [Example 177, (R)-N-sec-Butyl-2-(pyridin-3-yloxy)-nicotinamide], 55 to 56 °C; under `NS(=O)(=O)c1ccc(CNC(=O)c2cccnc2Oc2cccnc2)cc1` [Example 178, 2-(Pyridin-3-yloxy)-N-(4-sulfamoyl-benzyl)-nicotinamide], 196 to 197 °C. Under `NS(=O)(=O)N1CCC(CNC(=O)c2cccnc2Oc2cccnc2)CC1` [Example 179, 2-(Pyridin-3-yloxy)-N-(1-sulfamoyl-piperidin-4-ylmethyl)-nicotinamide] stands 165 to 166 °C; under `O=C(NCc1cccc2[nH]ccc12)c1cccnc1Oc1cccnc1` [Example 180, N-(1H-Indol-4-ylmethyl)-2-(pyridin-3yloxy)-nicotinamide], 134 to 135 °C. `O=C(NCc1ccccn1)c1cccnc1Oc1cccnc1` [Example 181, N-Pyridin-2-ylmethyl-2-(pyridin-3-yloxy)-nicotinamide] displayed a melting point of 118 to 119 °C. In turn, `O=C(NCc1ccc2c(c1)OCO2)c1cccnc1Oc1cccnc1` [Example 182, N-Benzo[1,3]dioxol-5-ylmethyl-2-(pyridin-3-yloxy)-nicotinamide] returned a melting point of 130 to 131 °C. Under `O=C(NCc1ccccc1Cl)c1cccnc1Oc1cccc(C(F)(F)F)c1` [Example 184, N-(2-Chloro-benzyl)-2-(3-trifluoromethyl-phenoxy)-nicotinamide] stands 88 to 90 °C; under `O=C(Cc1ccccc1Cl)Nc1cccnc1Oc1cccnc1` [Example 185, 2-(2-Chloro-phenyl)-N-[2-(pyridin-3-yloxy)-pyridin-3-yl]-acetamide], 137 to 139 °C; under `CC(=O)c1ccc(CC(=O)Nc2cccnc2Oc2cccnc2)cc1` [Example 186, 2-(4-Acetyl-phenyl)-N-[2-(pyridin-3-yloxy)-pyridin-3-yl]-acetamide], 110 to 112 °C. As to `CC(C)(O)c1ccc(CNC(=O)c2cccnc2Oc2cccc(Cl)c2)cc1` [Example 187, 2-(3-Chloro-phenoxy)-N-[4-(1-hydroxy-1-methyl-ethyl)-benzyl]-nicotinamide], the melting point fell in the range of 57 to 59 °C. As for `O=C(NCc1ccccc1Cl)c1cccnc1Oc1cccc(Cl)c1` [Example 189, N-(2-Chloro-benzyl)-2-(3-chloro-phenoxy)-nicotinamide], the figure is 126 to 128 °C; as for `NS(=O)(=O)c1ccc(CNC(=O)c2cccnc2Oc2ccc(F)cc2)cc1` [Example 193, 2-(4-Fluoro-phenoxy)-N-(4-sulfamoyl-benzyl)-nicotinamide], 222 to 223 °C; as for `NS(=O)(=O)N1CCC(CNC(=O)c2cccnc2Oc2ccc(F)cc2)CC1` [Example 194, 2-(4-Fluoro-phenoxy)-N-(1-sulfamoyl-piperidin-4-ylmethyl)-nicotinamide], 225 to 226 °C. Under `O=C(NCC1CCC=CO1)c1cccnc1Oc1ccc(F)cc1` (stereo not shown) [Example 195, N-(3,4-Dihydro-2H-pyran-2-ylmethyl)-2-(4-fluoro-phenoxy)-nicotinamide] stands 55 to 57 °C. As to `N#Cc1cccc(Oc2ncccc2C(=O)NCc2ccc(S(N)(=O)=O)cc2)c1` [Example 196, 2-(3-Cyano-phenoxy)-N-(4-sulfamoyl-benzyl)-nicotinamide], the melting point is 179 to 180 °C. The compound `COc1cccc(Oc2ncccc2C(=O)NCc2ccc(S(N)(=O)=O)cc2)c1` [Example 200, 2-(3-Methoxy-phenoxy)-N-(4-sulfamoyl-benzyl)-nicotinamide] returned a melting point of 142 to 143 °C. The compound `COc1cccc(Oc2ncccc2C(=O)NCc2ccc(C(C)(C)O)cc2)c1` [Example 201, N-[4-(1-Hydroxy-1-methyl-ethyl)-benzyl]-2-(3-methoxy-phenoxy)-nicotinamide] came in with a melting point of 69 to 71 °C. The compound `CC(C)(O)c1ccc(CNC(=O)c2cccnc2Oc2cccc(F)c2)cc1` [Example 202, 2-(3-Fluoro-phenoxy)-N-[4-(1-hydroxy-1-methyl-ethyl)-benzyl]-nicotinamide] gave a melting point of 106 to 108 °C.

The compound `CC(C)(O)c1ccc(CC(=O)Nc2cccnc2Oc2ccc(F)cc2)cc1` [Example 203, N-[2-(4-Fluoro-phenoxy)-pyridin-3-yl]-2-[4-(1-hydroxy-1-methyl-ethyl)-phenyl]-acetamide] showed a melting point of 135 to 137 °C. Under `CSc1cccc(Oc2ncccc2C(=O)NCc2ccc(C(C)(C)O)cc2)c1` [Example 206, N-[4-(1-Hydroxy-1-methyl-ethyl)-benzyl]-2-(3-methylsulfanyl-phenoxy)-nicotinamide] stands 107 to 109 °C. As for `CC(C)(O)c1ccc(CNC(=O)c2cccnc2Oc2cccc(S(C)(=O)=O)c2)cc1` [Example 207, N-[4-(1-Hydroxy-1-methyl-ethyl)-benzyl]-2-(3-methanesulfonyl-phenoxy)-nicotinamide], the figure is 51 to 53 °C.

The compound `O=C(NCc1ccncc1)c1cccnc1Oc1cccnc1` [Example 208, N-Pyridin4-ylmethyl-2-(pyridin-3-yloxy)-nicotinamide] registered a melting point of 142 to 144 °C.

As for `Cc1cnc(CNC(=O)c2cccnc2Oc2ccc(F)cc2)cn1` [Example 209, 2-(4-Fluoro-phenoxy)-N-(5-methyl-pyrazin-2-ylmethyl)-nicotinamide], the melting point was 159 °C. Under `CC(C)(O)c1ccc(CC(=O)Nc2cccnc2Oc2cccnc2)cc1` [Example 211, 2-[4-(1-Hydroxy-1-methyl-ethyl)-phenyl]-N-[2-(pyridin-3-yloxy)-pyridin-3-yl]-acetamide] stands 122 to 124 °C; under `CC(=O)c1cccc(Oc2ncccc2NC(=O)Cc2ccc(C(C)(C)O)cc2)c1` [Example 213, N-[2-(3-Acetyl-phenoxy)-pyridin-3-yl]-2-[4-(1-hydroxy-1-methyl-ethyl)-phenyl]-acetamide], 85 to 87 °C; under `CC(C)(O)C1CCC(CNC(=O)c2cccnc2Oc2cccc(C#N)c2)CC1` (stereo not shown) [Example 214, 2-(3-Cyano-phenoxy)-N-[4-(1-hydroxy-1-methyl-ethyl)-cyclohexylmethyl]-nicotinamide], 129 to 130 °C. Under `O=C1COC(CNC(=O)c2cccnc2Oc2ccc(F)cc2)CN1` (stereo not shown) [Example 216, 2-(4-Fluoro-phenoxy)-N-(5-oxo-morpholin-2-ylmethyl)-nicotinamide] stands 157 to 159 °C; under `CC(C)(O)c1ccc(CC(=O)Nc2cccnc2Oc2cccc(C#N)c2)cc1` [Example 218, N-[2-(3-Cyano-phenoxy)-pyridin-3-yl]-2-[4-(1-hydroxy-1methyl-ethyl)-phenyl]-acetamide], 97 to 99 °C; under `O=C(NCc1ccc(C(=O)C(F)(F)F)cc1)c1cccnc1Oc1cccnc1` [Example 219, 2-(Pyridin-3-yloxy)-N-(4-trifluoroacetyl-benzyl)-nicotinamide], 134 to 136 °C.

Compound `CC(=O)c1cccc(Oc2ncccc2C(=O)NCc2ccncc2)c1` [Example 220, 2-(3-Acetyl-phenoxy)-N-pyridin-4-ylmethyl-nicotinamide] gave a melting point of 148 to 150 °C.

`CC(=O)c1cccc(Oc2ncccc2C(=O)NCc2ccc(C(C)(C)O)cc2)c1` [Example 221, 2-(3-Acetyl-phenoxy)-N-[4-(1-hydroxy-1-methyl-ethyl)-benzyl]-nicotinamide] gave a melting point of 52 to 54 °C. For `CC(=O)c1cccc(Oc2ncccc2C(=O)NCc2ccccc2Cl)c1` [Example 222, 2-(3-Acetyl-phenoxy)-N-(2-chloro-benzyl)-nicotinamide], the melting point was 140 to 142 °C.

As to `CC(=O)c1cccc(Oc2ncccc2C(=O)NCc2ccc(C(C)O)cc2)c1` (stereo not shown) [Example 223, 2-(3-Acetyl-phenoxy)-N-[4-(1-hydroxy-ethyl)-benzyl]-nicotinamide], the melting point is 105 to 107 °C. As for `CC(=O)c1cccc(Oc2ncccc2C(=O)NCc2ccc(S(N)(=O)=O)cc2)c1` [Example 224, 2-(3-Acetyl-phenoxy)-N-(4-sulfamoyl-benzyl)-nicotinamide], the figure is 162 to 164 °C; as for `CC(=O)C1CCC(CNC(=O)c2cccnc2Oc2ccc(F)cc2)CC1` (stereo not shown) [Example 229, N-(4-Acetyl-cyclohexylmethyl)-2-(4-fluoro-phenoxy)-nicotinamide], 110 to 111 °C; as for `CC(C)(O)c1ccc(CNC(=O)c2cccnc2Oc2ccc(F)cc2F)cc1` [Example 230, 2-(2,4-Difluoro-phenoxy)-N-[4-(1-hydroxy-1-methyl-ethyl)-benzyl]-nicotinamide], 92 to 94 °C.

Compound `CC(C)(O)c1ccc(CNC(=O)c2cccnc2Oc2ccc(F)c(F)c2)cc1` [Example 231, 2-(3,4-Difluoro-phenoxy)-N-[4-(1-hydroxy-1-methyl-ethyl)-benzyl]-nicotinamide] yielded a melting point of 98 to 100 °C. With `O=C(NCc1ccc(C2(O)CCC2)cc1)c1cccnc1Oc1ccc(F)c(F)c1` [Example 232, 2-(3,4-Difluoro-phenoxy)-N-[4-(1-hydroxy-cyclobutyl)-benzyl]-nicotinamide], the melting point lay in the range of 74 to 76 °C. In turn, `CC(=O)c1cccc(Oc2ncccc2C(=O)NCc2ccc(C(C)(C)O)cc2Cl)c1` [Example 235, 2-(3-Acetyl-phenoxy)-N-[2-chloro-4-(1-hydroxy-1-methyl-ethyl)-benzyl]-nicotinamide] returned a melting point of 102 to 104 °C.
